Key:
[1] = biological target: T1, U1 snRNP + FOXM1 5' ss oligo (Homo sapiens, UniProt P09234); assay: FP: U1 snRNP binding to FOXM1 5' ss oligo (Supplementary Fig. 2)
T1 construct: host or cells: either HeLa-S3 U1A-HTP cells (native, as F1) or E. coli proteins (reconstituted, as F2)
Procedure: All of 5′-FAM labeled RNA oligos used in this study were synthesized and purified by IDT (USA). Fluorescence polarization (FP) assays were performed in binding buffer (20 mM HEPES pH 7.5, 1 mM MgCl2, 200 mM KCl, 0.01% TritonX-100, 0.1%PEG3350, 2%DMSO) at room temperature using a Envision HTS Plate Reader system (Revvity). Each reaction system contains 3 nM of FAM-labeled RNA oligo, reconstituted U1 snRNP (or native U1 snRNP, or full-length U1 snRNA, or the 5′end of U1 snRNA) at twofold increasing concentrations, 800 nM (for reconstituted U1 snRNP) or 400 nM (for native U1 snRNP) U1C, different small molecules in DMSO (10 μM unless otherwise stated). The equilibrium dissociation constants (Kd) of binding reaction were calculated using the following single-site binding model formula in GraphPad Prism: y=START+(END−START)x/kD+x where x and y represent the concentration of U1 snRNP (or U1 snRNA) and the polarization value measured respectively, START represents the polarization value of protein-free nucleic acid probe, END represents the maximum polarization value when U1 snRNP (or U1 snRNA) binds to the fluorescently labeled 5′ ss oligo. All FP experiments are carried out in two distinct biological replicates and error bars represent the standard deviation.

[2] = system: cassette exon / GA/GU iExon inclusion, HEK293 cells, scr siRNA; assay: RNA-seq splicing analysis, compound dose response, scrambled (mock) siRNA; type: cell-based, human
Excerpt: (§1) Skipped exons are highly enriched for noncanonical 5′ ss sequences (on either the intronic or exonic side), which account for 90% of skipped exons (Supplementary Fig. 8C). For example, among skipped exons with a canonical exonic 5′ ss sequence, 74% contain noncanonical intron sequence. These observations are consistent with the previous published role for U1C stabilization of the U1 snRNA-pre-mRNA duplex at the 5′ ss[25]–[28]. […] We will refer to these as class I exons for clarity in later discussion.
(§2) We next examined the effect of U1C knockdown on compound-mediated splicing. […] We next used the complete dose response to calculate the effective concentration at which deltaPSIcompound-DMSO is 30 (EC-dPSI30).
(§3) HEK293T cells were grown in DMEM media with 10% FBS. 500,000 cells in 1.75 mL of media were plated into a 6-well plate for approximately 6 h. Either siRNA negative control (ThermoFisher Silencer^TM Negative control #2, AM4613) or U1C siRNA (ThermoFisher Silencer^TM Select Pre-designed siRNA, S13225) were transfected for a final concentration of 25 nM using Invitrogen Lipofectamine RNAiMax (13778-150). In brief, 10 μL 5 μM siRNA was added to 115 μL of OptiMEM, while 5 μL Lipofectamine added to 120 μL OptiMEM for 5 minu before mixing the solutions and incubating for 20 min. 250 μL of Lipofectamine:siRNA solution was gentle added to the 1.75 mL cells. After 24 h post-transfection, cells were treated with 10 μL compound resuspended in DMSO. […] Each compound-treated experimental condition was treated and collected in duplicate, while four DMSO only treated samples per siRNA transfection were collected. RNA was isolated using KingFisher^TM Apex instrument and the MagMAX™ mirVana™ Total RNA Isolation Kit (A27828) by Thermo Fisher according to manufacturer’s protocol. Isolated RNA was submitted to Admera Health for library preparation (polyA selected, stranded) and mRNA-sequencing and >20 M 150 bp pair-end reads were returned.
RNAseq and splicing analysis were described earlier using DEDseq (https:// github.com/liwc01/DEDSeq[18]) with minor modifications. RNA sequencing reads were mapped to human genome (hg19) using STAR (version 2.7.10b); only uniquely mapped reads (with MAPQ > 10) with <5 nt/100 nt mismatches and properly paired reads were used. For splicing analysis, all junction reads (read with a gap in alignment indicating splicing) were used, including the ones mapped to unannotated splice sites. Reads were counted for different exons (for cassette exon [CE]) or exonic regions (for A5′ss or A3′ss). For each splicing event, a percent-spliced-in (PSI) value was calculated using the percent of average read number supporting the inclusion among all reads supporting either the inclusion or the exclusion. A minimum of 10 for the denominator of PSI calculation was required. Otherwise, a “NA” value would be generated. PSI values for biological replicates were averaged, and the PSI difference between the two treatment groups was calculated. For a statistical test, a 2 × 2 read counts table was made for each event, with rows for reads supporting inclusion or exclusion, and columns for the two comparing sample groups. Fisher’s exact test was used for the statistical tests. For biological replicates, each pair of the testing and control sample was analyzed by Fisher’s exact test and the geometric mean of all P-values was reported as a final P-value. PSI change (deltaPSI) of >10% (or < −10%) and P < 0.001 was used to select splicing events being regulated by the treatment. PSI calculation, Fisher’s exact test were performed using R (4.0.5). 5′ ss composition analysis was performed as described in ref. [25]. Potency of splicing modulator was determined by plotting dPSI and identifying the concentration at which the change in PSI reached 30% and reported as EC_dPSI30.

[3] = system: cassette exon / GA/GU iExon inclusion, HEK293 cells, U1C KD; assay: RNA-seq splicing analysis, compound dose response, U1C knockdown; type: cell-based, human
Excerpt: as §1, §2, §3
RNAseq and splicing analysis were described earlier using DEDseq (https:// github.com/liwc01/DEDSeq[18]) with minor modifications. RNA sequencing reads were mapped to human genome (hg19) using STAR (version 2.7.10b); only uniquely mapped reads (with MAPQ > 10) with <5 nt/100 nt mismatches and properly paired reads were used. For splicing analysis, all junction reads (read with a gap in alignment indicating splicing) were used, including the ones mapped to unannotated splice sites. Reads were counted for different exons (for cassette exon [CE]) or exonic regions (for A5′ss or A3′ss). For each splicing event, a percent-spliced-in (PSI) value was calculated using the percent of average read number supporting the inclusion among all reads supporting either the inclusion or the exclusion. A minimum of 10 for the denominator of PSI calculation was required. Otherwise, a “NA” value would be generated. PSI values for biological replicates were averaged, and the PSI difference between the two treatment groups was calculated. For a statistical test, a 2 × 2 read counts table was made for each event, with rows for reads supporting inclusion or exclusion, and columns for the two comparing sample groups. […] For biological replicates, each pair of the testing and control sample was analyzed by Fisher’s exact test and the geometric mean of all P-values was reported as a final P-value. […] Potency of splicing modulator was determined by plotting dPSI and identifying the concentration at which the change in PSI reached 30% and reported as EC_dPSI30.

[4] = biological target: short RNA duplex of 5' ss (11 nt) and U1 snRNA (11 nt); details: NMR construct without other U1 snRNP components; read-out: Kd between the compound and the short RNA duplex; cited from earlier work

effect on binding between U1 snRNP and FOXM1 5' ss oligo [1]	SMILES	geomean pEC_dPSI30 for all GA/GU iExons ([2]; Fig. 8C, mock knockdown, -log10 of compound concentration when dPSI achieves 30%)	saturation PSI of PDXDC1 iExon ([2]; highest dose, mock and U1C KD reach similar saturation)	U1CKD Log10 effect ([3]; Fig. 8C picture, pEC-dPSI30 mock versus U1C KD)	geomean pEC_dPSI30 for all GA/GU iExons ([3]; Fig. 8C, U1C KD)	Kd [4] [µM]
no effect	Cc1cn2nc(-c3cc(=O)n4cc(N5CCNC6(CC6)C5)ccc4n3)cc(C)c2n1 [Risdiplam, risdiplam]	6.05	40	-0.42	5.63	
	Cc1cn2cc(-c3cc(=O)n4cc(N5CCN(C)CC5)ccc4n3)cc(F)c2n1 [SMN-C5]					28

Source: publication PMC13500670, “The U1 snRNP protein U1C and Helix H of U1 snRNA are critical for small molecule splicing modulator function” (Nature Communications, 2026)
